Assay results published in publication PMC12028159, “L-Rhamnose Dehydrogenase LraA of Aspergillus niger Shows High Substrate Specificity Matching Its Expression Profile” (Journal of Fungi, 2025).

Test system: LraA (L-rhamnose dehydrogenase)
Experiment: NADH formation at […] nm, Michaelis-Menten fit
Type: biochemical, Aspergillus niger
Conditions: NAD+ 1 mM as co-substrate, 100 mM Tris-HCl pH 8.0, 25 °C

Km: 2400 ± 900 µM
Structure (SMILES): C[C@@H]1OC(O)[C@H](O)[C@H](O)[C@H]1O (stereo partly drawn) [L-rhamnose]
